{
  "source": "patent US12018021B2",
  "about": "(UCB Biopharma SRL, priority 2018, dated 2024)",
  "data": [
    {"target": "IgE-Tb / sFcεRIα-Y131A-AF488 (Homo sapiens, UniProt P01854, N146Q/N252Q)", "sequence (P01854 whole entry N146Q/N252Q)": "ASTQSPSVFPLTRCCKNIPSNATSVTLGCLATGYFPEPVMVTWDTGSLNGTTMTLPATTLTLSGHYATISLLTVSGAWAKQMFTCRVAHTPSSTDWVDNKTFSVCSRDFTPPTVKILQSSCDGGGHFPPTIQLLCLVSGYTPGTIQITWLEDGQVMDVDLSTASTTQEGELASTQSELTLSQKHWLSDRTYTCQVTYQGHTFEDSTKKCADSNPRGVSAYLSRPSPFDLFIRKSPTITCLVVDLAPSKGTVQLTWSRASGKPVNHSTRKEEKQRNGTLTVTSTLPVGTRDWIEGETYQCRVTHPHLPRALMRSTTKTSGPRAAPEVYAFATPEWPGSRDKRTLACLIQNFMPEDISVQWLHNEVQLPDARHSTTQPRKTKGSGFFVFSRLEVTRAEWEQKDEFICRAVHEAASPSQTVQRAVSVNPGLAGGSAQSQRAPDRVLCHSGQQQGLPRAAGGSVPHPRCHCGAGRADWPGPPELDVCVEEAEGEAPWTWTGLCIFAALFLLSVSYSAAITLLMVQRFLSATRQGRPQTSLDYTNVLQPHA", "experiment": "IgE-Tb / sFcεRIα-Y131A-AF488 FRET assay (protocol for examples 234 to 501)", "format": "binding", "conditions": "examples 234 to 501: compound with IgE-Tb 30 minutes before sFcεRIα-Y131A-AF488, incubated 18 hours at room temperature; read-out: Y131A FRET IC50 range", "in_short": "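Read-out is the 520/490 nm emission ratio (337 nm excitation) after 18 h at room temperature, background subtracted, fitted four-parameter for IC50. Final reagents: 5 nM IgE-Tb, preincubated 30 min with compound (top typically 10 μM, 2% DMSO, 3-fold 10-point), plus 25 nM sFcεRIα-Y131A-AF488.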", "units": {"IC50": "nM"}, "values": [
      {"molecule": "C[C@H]1C[C@@H]1C(=O)Nc1sc2c(c1C(=O)N[C@H]1C[C@H](F)C1)C[C@@H](n1cnnc1Nc1cc(C(F)F)nn1C)CC2", "note": "[Example 438, (5S)-5-[3-[[5-(difluoromethyl)-2-methylpyrazol-3-yl]amino]-1,2,4-triazol-4-yl]-N-(trans-3-fluorocyclobutyl)-2-[[(1S,2S)-2-methylcyclopropanecarbonyl]amino]-4,5,6,7-tetrahydro-1-benzothiophene-3-carboxamide]", "IC50": "< 1000"},
      {"molecule": "C[C@H]1C[C@@H]1C(=O)Nc1sc2c(c1C(=O)NC1CC(F)(F)C1)C[C@@H](n1cnnc1Nc1cc(C(F)F)nn1C)CC2", "note": "[Example 439, (5S)—N-(3,3-difluorocyclobutyl)-5-[3-[[5-(difluoromethyl)-2-methylpyrazol-3-yl]amino]-1,2,4-triazol-4-yl]-2-[[(1S,2S)-2-methylcyclopropanecarbonyl]amino]-4,5,6,7-tetrahydro-1-benzothiophene-3-carboxamide]", "IC50": "< 1000"},
      {"molecule": "C[C@H]1C[C@@H]1C(=O)Nc1sc2c(c1C(=O)NCC1CC(F)(F)C1)C[C@@H](n1cnnc1Nc1cc(C(F)F)nn1C)CC2", "note": "[Example 440, (5S)—N-[(3,3-difluorocyclobutyl)methyl]-5-[3-[[5-(difluoromethyl)-2-methylpyrazol-3-yl]amino]-1,2,4-triazol-4-yl]-2-[[(1S,2S)-2-methylcyclopropanecarbonyl]amino]-4,5,6,7-tetrahydro-1-benzothiophene-3-carboxamide]", "IC50": "< 1000"},
      {"molecule": "C[C@H]1C[C@@H]1C(=O)Nc1sc2c(c1C(=O)NCC1CC1(F)F)C[C@@H](n1cnnc1Nc1cc(C(F)F)nn1C)CC2", "note": "(stereo partly drawn) [Example 441, (5S)—N-[(2,2-difluorocyclopropyl)methyl]-5-[3-[[5-(difluoromethyl)-2-methylpyrazol-3-yl]amino]-1,2,4-triazol-4-yl]-2-[[(1S,2S)-2-methylcyclopropanecarbonyl]amino]-4,5,6,7-tetrahydro-1-benzothiophene-3-carboxamide]", "IC50": "< 1000"},
      {"molecule": "C[C@H]1C[C@@H]1C(=O)Nc1sc2c(c1C(=O)NC[C@H]1C[C@@H](F)C1)C[C@@H](n1cnnc1Nc1cc(C(F)F)nn1C)CC2", "note": "[Example 442, (5S)-5-[3-[[5-(difluoromethyl)-2-methylpyrazol-3-yl]amino]-1,2,4-triazol-4-yl]-N-[cis-(3-fluorocyclobutyl)methyl]-2-[[(1S,2S)-2-methylcyclopropanecarbonyl]amino]-4,5,6,7-tetrahydro-1-benzothiophene-3-carboxamide]", "IC50": "< 1000"},
      {"molecule": "C[C@H]1C[C@@H]1C(=O)Nc1sc2c(c1C(=O)NC[C@H]1C[C@H]1F)C[C@@H](n1cnnc1Nc1cc(C(F)F)nn1C)CC2", "note": "[Example 443, (5S)-5-[3-[[5-(difluoromethyl)-2-methylpyrazol-3-yl]amino]-1,2,4-triazol-4-yl]-N-[[(1R,2R)-2-fluorocyclopropyl]methyl]-2-[[(1S,2S)-2-methylcyclopropanecarbonyl]amino]-4,5,6,7-tetrahydro-1-benzothiophene-3-carboxamide]", "IC50": "< 1000"},
      {"molecule": "Cn1nc(OC(F)F)cc1Nc1nncn1[C@H]1CCc2sc(NC(=O)C3CC3)c(C(=O)NCC3CC34CC4)c2C1", "note": "(stereo partly drawn) [Example 444, (5S)-2-(cyclopropanecarbonylamino)-5-[3-[[5-(difluoromethoxy)-2-methylpyrazol-3-yl]amino]-1,2,4-triazol-4-yl]-N-(spiro[2.2]pentan-2-ylmethyl)-4,5,6,7-tetrahydro-1-benzothiophene-3-carboxamide]", "IC50": "< 1000"},
      {"molecule": "Cn1nc(OC(F)F)cc1Nc1nncn1[C@H]1CCc2sc(NC(=O)C3CC3)c(C(=O)NCC3CCC3)c2C1", "note": "[Example 445, (5S)—N-(cyclobutylmethyl)-2-(cyclopropanecarbonylamino)-5-[3-[[5-(difluoromethoxy)-2-methylpyrazol-3-yl]amino]-1,2,4-triazol-4-yl]-4,5,6,7-tetrahydro-1-benzothiophene-3-carboxamide]", "IC50": "< 1000"},
      {"molecule": "Cn1nc(OC(F)F)cc1Nc1nncn1[C@H]1CCc2sc(NC(=O)C3CC3)c(C(=O)NCC3CC(F)(F)C3)c2C1", "note": "[Example 446, (5S)-2-(cyclopropanecarbonylamino)-N-[(3,3-difluorocyclobutyl)methyl]-5-[3-[[5-(difluoromethoxy)-2-methylpyrazol-3-yl]amino]-1,2,4-triazol-4-yl]-4,5,6,7-tetrahydro-1-benzothiophene-3-carboxamide]", "IC50": "< 1000"},
      {"molecule": "Cn1nc(OC(F)F)cc1Nc1nncn1[C@H]1CCc2sc(NC(=O)C3CC3)c(C(=O)N[C@H]3C[C@@H](F)C3)c2C1", "note": "[Example 447, (5S)-2-(cyclopropanecarbonylamino)-5-[3-[[5-(difluoromethoxy)-2-methylpyrazol-3-yl]amino]-1,2,4-triazol-4-yl]-N-(cis-3-fluorocyclobutyl)-4,5,6,7-tetrahydro-1-benzothiophene-3-carboxamide]", "IC50": "< 1000"},
      {"molecule": "CC1CC(NC(=O)c2c(NC(=O)C3CC3)sc3c2C[C@@H](n2cnnc2Nc2cc(OC(F)F)nn2C)CC3)C1", "note": "(stereo partly drawn) [Example 448, (5S)-2-(cyclopropanecarbonylamino)-5-[3-[[5-(difluoromethoxy)-2-methylpyrazol-3-yl]amino]-1,2,4-triazol-4-yl]-N-(3-methylcyclobutyl)-4,5,6,7-tetrahydro-1-benzothiophene-3-carboxamide]", "IC50": "< 1000"},
      {"molecule": "Cn1nc(OC(F)F)cc1Nc1nncn1[C@H]1CCc2sc(NC(=O)C3CC3)c(C(=O)N[C@H]3C[C@H](F)C3)c2C1", "note": "[Example 449, (5S)-2-(cyclopropanecarbonylamino)-5-[3-[[5-(difluoromethoxy)-2-methylpyrazol-3-yl]amino]-1,2,4-triazol-4-yl]-N-(trans-3-fluorocyclobutyl)-4,5,6,7-tetrahydro-1-benzothiophene-3-carboxamide]", "IC50": "< 1000"},
      {"molecule": "Cn1nc(OC(F)F)cc1Nc1nncn1[C@H]1CCc2sc(NC(=O)C3CC3)c(C(=O)NC3CC(F)(F)C3)c2C1", "note": "[Example 450, (5S)-2-(cyclopropanecarbonylamino)-N-(3,3-difluorocyclobutyl)-5-[3-[[5-(difluoromethoxy)-2-methylpyrazol-3-yl]amino]-1,2,4-triazol-4-yl]-4,5,6,7-tetrahydro-1-benzothiophene-3-carboxamide]", "IC50": "< 1000"},
      {"molecule": "Cn1nc(OC(F)F)cc1Nc1nncn1[C@H]1CCc2sc(NC(=O)C3CC3)c(C(=O)NCC3CCC3(F)F)c2C1", "note": "(stereo partly drawn) [Example 451, (5S)-2-(cyclopropanecarbonylamino)-N-[(2,2-difluorocyclobutyl)methyl]-5-[3-[[5-(difluoromethoxy)-2-methylpyrazol-3-yl]amino]-1,2,4-triazol-4-yl]-4,5,6,7-tetrahydro-1-benzothiophene-3-carboxamide]", "IC50": "< 1000"},
      {"molecule": "CC1CC1CNC(=O)c1c(NC(=O)C2CC2)sc2c1C[C@@H](n1cnnc1Nc1cc(OC(F)F)nn1C)CC2", "note": "(stereo partly drawn) [Example 453, (5S)-2-(cyclopropanecarbonylamino)-5-[3-[[5-(difluoromethoxy)-2-methylpyrazol-3-yl]amino]-1,2,4-triazol-4-yl]-N-[(2-methylcyclopropyl)methyl]-4,5,6,7-tetrahydro-1-benzothiophene-3-carboxamide]", "IC50": "< 1000"},
      {"molecule": "Cn1nc(OC(F)F)cc1Nc1nncn1[C@H]1CCc2sc(NC(=O)C3CC3)c(C(=O)NC[C@H]3C[C@H](F)C3)c2C1", "note": "[Example 456, (5S)-2-(cyclopropanecarbonylamino)-5-[3-[[5-(difluoromethoxy)-2-methylpyrazol-3-yl]amino]-1,2,4-triazol-4-yl]-N-[trans-(3-fluorocyclobutyl)methyl]-4,5,6,7-tetrahydro-1-benzothiophene-3-carboxamide]", "IC50": "< 1000"},
      {"molecule": "Cn1nc(OC(F)F)cc1Nc1nncn1[C@H]1CCc2sc(NC(=O)C3CC3)c(C(=O)NCC3CCC3F)c2C1", "note": "(stereo partly drawn) [Example 457, (5S)-2-(cyclopropanecarbonylamino)-5-[3-[[5-(difluoromethoxy)-2-methylpyrazol-3-yl]amino]-1,2,4-triazol-4-yl]-N-[(2-fluorocyclobutyl)methyl]-4,5,6,7-tetrahydro-1-benzothiophene-3-carboxamide]", "IC50": "< 1000"},
      {"molecule": "Cn1nc(OC(F)F)cc1Nc1nncn1[C@H]1CCc2sc(NC(=O)C3CC3)c(C(=O)NC[C@H]3C[C@H]3F)c2C1", "note": "[Example 461, (5S)-2-(cyclopropanecarbonylamino)-5-[3-[[5-(difluoromethoxy)-2-methylpyrazol-3-yl]amino]-1,2,4-triazol-4-yl]-N-[[(1R,2R)-2-fluorocyclopropyl]methyl]-4,5,6,7-tetrahydro-1-benzothiophene-3-carboxamide]", "IC50": "< 1000"},
      {"molecule": "Cn1nc(OC(F)F)cc1Nc1nncn1[C@H]1CCc2sc(NC(=O)C3CC3)c(C(=O)NC[C@H]3C[C@@H]3F)c2C1", "note": "[Example 462, (5S)-2-(cyclopropanecarbonylamino)-5-[3-[[5-(difluoromethoxy)-2-methylpyrazol-3-yl]amino]-1,2,4-triazol-4-yl]-N-[[(1R,2S)-2-fluorocyclopropyl]methyl]-4,5,6,7-tetrahydro-1-benzothiophene-3-carboxamide]", "IC50": "< 1000"},
      {"molecule": "COc1cc(Nc2nncn2[C@H]2CCc3sc(NC(=O)[C@H]4C[C@@H]4C)c(C(=O)NC[C@H]4C[C@@H]4F)c3C2)n(C)n1", "note": "[Example 466, (5S)—N-[[(1R,2S)-2-fluorocyclopropyl]methyl]-5-[3-[(5-methoxy-2-methylpyrazol-3-yl)amino]-1,2,4-triazol-4-yl]-2-[[(1S,2S)-2-methylcyclopropanecarbonyl]amino]-4,5,6,7-tetrahydro-1-benzothiophene-3-carboxamide]", "IC50": "< 1000"},
      {"molecule": "COc1cc(Nc2nncn2[C@H]2CCc3sc(NC(=O)[C@H]4C[C@@H]4C)c(C(=O)NC[C@H]4C[C@H](F)C4)c3C2)n(C)n1", "note": "[Example 467, (5S)—N-[trans-(3-fluorocyclobutyl)methyl]-5-[3-[(5-methoxy-2-methylpyrazol-3-yl)amino]-1,2,4-triazol-4-yl]-2-[[(1S,2S)-2-methylcyclopropanecarbonyl]amino]-4,5,6,7-tetrahydro-1-benzothiophene-3-carboxamide]", "IC50": "< 1000"}
    ]}
  ]
}
